Source: patent US11793823B2, “Compounds and pharmaceutical uses thereof” (SyneuRx International (Taiwan) Corp., priority 2020, dated 2023)
Where a name gives a salt, the structure may show the parent alone.

Target: human D-amino acid oxidase (hDAAO) (Homo sapiens (Human), UniProt P14920)
Experiment: In vitro human D-amino acid oxidase (hDAAO) activity, D-Serine/Amplex Red fluorescence
Format: biochemical
Conditions: D-Serine substrate, 20 min
Description: The hDAAO inhibitory activities were measured by using D-Serine as a substrate to produce H2O2. The produced H2O2 would be oxidized by peroxidase, and the produced free radicals would further react with Amplex Red reagent to emit fluorescence. The intensity of fluorescence at 590 nm would be measured to represent the activity of hDAAO. All compounds were dissolved in DMSO. Each compound was diluted with DMSO in 3-fold serial dilution to create a dose response curve. Each sample was added in triplicate, 1 µL/well, into 96-well black plates. Positive control wells were added with 1 μL of DMSO. Then 49 μL of assay buffer (100 mM Tris-HCl, pH 8.5) containing 1.2 ng/mL hDAAO, 900 nM FAD, 0.2 units/mL HRP, and 100 μM Amplex Red was added to each well of the plate using a multichannel pipette. Next, 50 μL of 100 mM D-Serine in assay buffer was added. The reaction plates were then incubated in the dark at room temperature. The fluorescence readout was detected at 0 and 20 mins by Molecular Device Gemini EM fluorescence reader using the following settings: excitation filter 530 nm, and emission filter 590 nm. The percentage of inhibition values for each well was calculated with the following equation: The percentage of inhibition=(fluorescence sample, 20 min−fluorescence sample, 0 min)/(fluorescence DMSO, 20 min−fluorescence DMSO, 0 min)×100%
The nonlinear curve fitting model in GraphPad Prism was used to calculate IC50 value for each compound.

human D-amino acid oxidase (hDAAO), sequence (P14920 whole entry): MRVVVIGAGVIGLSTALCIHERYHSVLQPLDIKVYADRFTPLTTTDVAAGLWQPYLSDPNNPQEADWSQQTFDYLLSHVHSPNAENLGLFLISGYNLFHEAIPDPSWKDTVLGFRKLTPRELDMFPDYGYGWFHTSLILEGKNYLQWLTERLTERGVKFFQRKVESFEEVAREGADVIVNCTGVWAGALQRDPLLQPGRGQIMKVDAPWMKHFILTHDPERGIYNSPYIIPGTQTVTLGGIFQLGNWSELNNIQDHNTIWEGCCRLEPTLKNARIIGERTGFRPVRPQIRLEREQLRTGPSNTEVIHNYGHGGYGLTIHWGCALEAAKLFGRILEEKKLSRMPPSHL

Row | Compound | IC50 [nM]
1 | O=C(OC[C@H]1O[C@@H](OC(=O)c2cc(O)c(O)c(OC(=O)c3cc(O)c(O)c(O)c3)c2)[C@H](OC(=O)c2cc(O)c(O)c(OC(=O)c3cc(O)c(O)c(O)c3)c2)[C@@H]1OC(=O)c1cc(O)c(O)c(OC(=O)c2cc(O)c(O)c(O)c2)c1)c1cc(O)c(O)c(OC(=O)c2cc(O)c(O)c(O)c2)c1 [Compound 142, (2S,3R,4R,5R)-5-(((3,4-dihydroxy-5-((3,4,5-trihydroxybenzoyl)oxy)benzoyl)oxy)methyl)tetrahydrofuran-2,3,4-triyl tris(3,4-dihydroxy-5-((3,4,5-trihydroxybenzoyl)oxy)benzoate)] | 19
2 | O=C(O)c1cc(O)c(O)c(OC(=O)c2cc(O)c(O)c(OC(=O)c3cc(O)c(O)c(OC(=O)c4cc(O)c(O)c(O)c4)c3)c2)c1 [Compound 149, 3-((3-((3,4-dihydroxy-5-((3,4,5-trihydroxybenzoyl)oxy)benzoyl)oxy)-4,5-dihydroxybenzoyl)oxy)-4,5-dihydroxybenzoic acid] | 48
3 | 3-((3-((3-((3-((3-((3-((3-((1H-pyrrole-2-carbonyl)oxy)-4,5-dihydroxybenzoyl)oxy)-4,5-dihydroxybenzoyl)oxy)-4,5-dihydroxybenzoyl)oxy)-4,5-dihydroxybenzoic acid [Compound 28] | 82
4 | O=C(Oc1cc(C(=O)Oc2cc(C(=O)Oc3cc(C(=O)O[C@@H]4OC[C@@H](OC(=O)c5cc(O)c(O)c(OC(=O)c6cc(O)c(O)c(OC(=O)c7cc(O)c(O)c(OC(=O)c8cc(O)c(O)c(O)c8)c7)c6)c5)[C@H](OC(=O)c5cc(O)c(O)c(OC(=O)c6cc(O)c(O)c(OC(=O)c7cc(O)c(O)c(OC(=O)c8cc(O)c(O)c(O)c8)c7)c6)c5)[C@H]4OC(=O)c4cc(O)c(O)c(OC(=O)c5cc(O)c(O)c(OC(=O)c6cc(O)c(O)c(OC(=O)c7cc(O)c(O)c(O)c7)c6)c5)c4)cc(O)c3O)cc(O)c2O)cc(O)c1O)c1cc(O)c(O)c(O)c1 [Compound 128, (2S,3R,4S,5R)-tetrahydro-2H-pyran-2,3,4,5-tetrayl tetrakis(3-((3-((3,4-dihydroxy-5-((3,4,5-trihydroxybenzoyl)oxy)benzoyl)oxy)-4,5-dihydroxybenzoyl)oxy)-4,5-dihydroxybenzoate)] | 3.3
5 | O=C(O)c1cc(O)c(O)c(OC(=O)c2cc(O)c(O)c(OC(=O)c3cc(O)c(O)c(OC(=O)c4cc(O)c(O)c(OC(=O)c5cc(O)c(O)c(OC(=O)c6cc(CCc7cc(F)cc(F)c7)n[nH]6)c5)c4)c3)c2)c1 [Compound 58, 3-((3-((3-((3-((3-((3-(3,5-difluorophenethyl)-1H-pyrazole-5-carbonyl)oxy)-4,5-dihydroxybenzoyl)oxy)-4,5-dihydroxybenzoyl)oxy)-4,5-dihydroxybenzoyl)oxy)-4,5-dihydroxybenzoyl)oxy)-4,5-dihydroxybenzoic acid] | 33
6 | O=C(Oc1cc(C(=O)Oc2cc(C(=O)O[C@@H]3OC[C@@H](OC(=O)c4cc(O)c(O)c(OC(=O)c5cc(O)c(O)c(OC(=O)c6cc(O)c(O)c(O)c6)c5)c4)[C@H](OC(=O)c4cc(O)c(O)c(OC(=O)c5cc(O)c(O)c(OC(=O)c6cc(O)c(O)c(O)c6)c5)c4)[C@H]3OC(=O)c3cc(O)c(O)c(OC(=O)c4cc(O)c(O)c(OC(=O)c5cc(O)c(O)c(O)c5)c4)c3)cc(O)c2O)cc(O)c1O)c1cc(O)c(O)c(O)c1 [Compound 126, (2S,3R,4S,5R)-tetrahydro-2H-pyran-2,3,4,5-tetrayl tetrakis(3-((3,4-dihydroxy-5-((3,4,5-trihydroxybenzoyl)oxy)benzoyl)oxy)-4,5-dihydroxybenzoate)] | 3.6
7 | O=C(Oc1cc(C(=O)Oc2cc(C(=O)Oc3cc(C(=O)Oc4cc(C(=O)OC5CCCCCC5)cc(O)c4O)cc(O)c3O)cc(O)c2O)cc(O)c1O)c1cc(O)c(O)c(O)c1 [Compound 100, cycloheptyl 3-((3-((3-((3,4-dihydroxy-5-((3,4,5-trihydroxybenzoyl)oxy)benzoyl)oxy)-4,5-dihydroxybenzoyl)oxy)-4,5-dihydroxybenzoyl)oxy)-4,5-dihydroxybenzoate] | 19
8 | O=C(O)c1cc(O)c(O)c(OC(=O)c2cc(O)c(O)c(OC(=O)c3cc(O)c(O)c(OC(=O)c4cc(O)c(O)c(OC(=O)c5cc(O)c(O)c(OC(=O)c6cc(CCc7ccccc7)n[nH]6)c5)c4)c3)c2)c1 [Compound 34, 3-((3-((3-((3-((3,4-dihydroxy-5-((3-phenethyl-1H-pyrazole-5-carbonyl)oxy)benzoyl)oxy)-4,5-dihydroxybenzoyl)oxy)-4,5-dihydroxybenzoyl)oxy)-4,5-dihydroxybenzoyl)oxy)-4,5-dihydroxybenzoic acid] | 68
9 | O=C(Oc1cc(C(=O)Oc2cc(C(=O)Oc3cc(C(=O)Oc4cc(C(=O)OC5CCCCC5)cc(O)c4O)cc(O)c3O)cc(O)c2O)cc(O)c1O)c1cc(O)c(O)c(O)c1 [Compound 96, Cyclohexyl 3-((3-((3-((3,4-dihydroxy-5-((3,4,5-trihydroxybenzoyl)oxy)benzoyl)oxy)-4,5-dihydroxybenzoyl)oxy)-4,5-dihydroxybenzoyl)oxy)-4,5-dihydroxybenzoate] | 26
10 | O=C(OC[C@H]1O[C@@H](OC(=O)c2cc(O)c(O)c(OC(=O)c3cc(O)c(O)c(OC(=O)c4cc(O)c(O)c(OC(=O)c5cc(O)c(O)c(O)c5)c4)c3)c2)[C@H](OC(=O)c2cc(O)c(O)c(OC(=O)c3cc(O)c(O)c(OC(=O)c4cc(O)c(O)c(OC(=O)c5cc(O)c(O)c(O)c5)c4)c3)c2)[C@@H]1OC(=O)c1cc(O)c(O)c(OC(=O)c2cc(O)c(O)c(OC(=O)c3cc(O)c(O)c(OC(=O)c4cc(O)c(O)c(O)c4)c3)c2)c1)c1cc(O)c(O)c(OC(=O)c2cc(O)c(O)c(OC(=O)c3cc(O)c(O)c(OC(=O)c4cc(O)c(O)c(O)c4)c3)c2)c1 [Compound 146, (2S,3R,4R,5R)-5-(((3-((3-((3,4-dihydroxy-5-((3,4,5-trihydroxybenzoyl)oxy)benzoyl)oxy)-4,5-dihydroxybenzoyl)oxy)-4,5-dihydroxybenzoyl)oxy)methyl)tetrahydrofuran-2,3,4-triyl tris(3-((3-((3,4-dihydroxy-5-((3,4,5-trihydroxybenzoyl)oxy)benzoyl)oxy)-4,5-dihydroxybenzoyl)oxy)-4,5-dihydroxybenzoate)] | 4
11 | O=C(Oc1cc(OC(=O)c2cc(O)c(O)c(OC(=O)c3cc(O)c(O)c(OC(=O)c4cc(O)c(O)c(OC(=O)c5cc(O)c(O)c(OC(=O)c6cc(O)c(O)c(O)c6)c5)c4)c3)c2)cc(OC(=O)c2cc(CCc3ccc(C(F)(F)F)cc3)n[nH]2)c1)c1cc(O)c(O)c(OC(=O)c2cc(O)c(O)c(OC(=O)c3cc(O)c(O)c(OC(=O)c4cc(O)c(O)c(OC(=O)c5cc(O)c(O)c(O)c5)c4)c3)c2)c1 [Compound 107, 5-((3-(4-(trifluoromethyl)phenethyl)-1H-pyrazole-5-carbonyl)oxy)-1,3-phenylene bis(3-((3-((3-((3,4-dihydroxy-5-((3,4,5-trihydroxybenzoyl)oxy)benzoyl)oxy)-4,5-dihydroxybenzoyl)oxy)-4,5-dihydroxybenzoyl)oxy)-4,5-dihydroxybenzoate)] | 7
12 | O=C(Oc1cc(C(=O)O[C@H]2OC[C@@H](OC(=O)c3cc(O)c(O)c(OC(=O)c4cc(O)c(O)c(O)c4)c3)[C@H](OC(=O)c3cc(O)c(O)c(OC(=O)c4cc(O)c(O)c(O)c4)c3)[C@H]2OC(=O)c2cc(O)c(O)c(OC(=O)c3cc(O)c(O)c(O)c3)c2)cc(O)c1O)c1cc(O)c(O)c(O)c1 [Compound 117, (2R,3R,4S,5R)-tetrahydro-2H-pyran-2,3,4,5-tetrayl tetrakis(3,4-dihydroxy-5-((3,4,5-trihydroxybenzoyl)oxy)benzoate)] | 9
13 | O=C(Oc1cc(OC(=O)c2cc(O)c(O)c(OC(=O)c3cc(O)c(O)c(OC(=O)c4cc(O)c(O)c(OC(=O)c5cc(O)c(O)c(OC(=O)c6cc(O)c(O)c(O)c6)c5)c4)c3)c2)cc(OC(=O)c2cc(O)c(O)c(OC(=O)c3cc(O)c(O)c(OC(=O)c4cc(O)c(O)c(OC(=O)c5cc(O)c(O)c(OC(=O)c6cc(O)c(O)c(O)c6)c5)c4)c3)c2)c1)c1ccccc1 [Compound 103, 5-(benzoyloxy)-1,3-phenylene bis(3-((3-((3-((3,4-dihydroxy-5-((3,4,5-trihydroxybenzoyl)oxy)benzoyl)oxy)-4,5-dihydroxybenzoyl)oxy)-4,5-dihydroxybenzoyl)oxy)-4,5-dihydroxybenzoate)] | 7
14 | O=C(O)c1cc(O)c(O)c(OC(=O)c2cc(O)c(O)c(OC(=O)c3cc(O)c(O)c(OC(=O)c4cc(O)c(O)c(OC(=O)c5cc(O)c(O)c(OC(=O)c6ccc[nH]6)c5)c4)c3)c2)c1 [Compound 25, 3-((3-((3-((3-((3-((1H-pyrrole-2-carbonyl)oxy)-4,5-dihydroxybenzoyl)oxy)-4,5-dihydroxybenzoyl)oxy)-4,5-dihydroxybenzoyl)oxy)-4,5-dihydroxybenzoyl)oxy)-4,5-dihydroxybenzoic acid] | 89
15 | O=C(Oc1cccnc1)c1cc(O)c(O)c(OC(=O)c2cc(O)c(O)c(OC(=O)c3cc(O)c(O)c(OC(=O)c4cc(O)c(O)c(OC(=O)c5cc(O)c(O)c(O)c5)c4)c3)c2)c1 [Compound 94, 5-((5-((5-((2,3-dihydroxy-5-((pyridin-3-yloxy)carbonyl)phenoxy)carbonyl)-2,3-dihydroxyphenoxy)carbonyl)-2,3-dihydroxyphenoxy)carbonyl)-2,3-dihydroxyphenyl 3,4,5-trihydroxybenzoate hydrochloride salt] | 42
